The test system of one data set is cell killing. As to conditions: cited from earlier work; for activity in photodynamic therapy: in vitro conditions; for photosensitized cell killing: low intensity of red light.
The nature of the next data set: Stability of compounds. To be noted: decomposes to purpurin-18 methyl ester (3) and polar baseline material. Format: physicochemical.
In another data set the test system is tumor. To be noted: cited from earlier work.
Another data set deals with normal skin. As to conditions: comparable drug and light doses; cited from earlier work.
Data set [1] is described as follows: Long wavelength molar extinction coefficient. The data set is classed as physicochemical. As to conditions: in methanol, at 660 nm. The method, then: Lysyl-chlorin-p6 was prepared by treatment of purpurin 18 methyl ester (obtained from chlorophyll-a) with lysine in a mixture of dichloromethane, pyridine, and water. It was purified using a Waters Associate's C18 SepPak cartridge. Reversed phase analytical high-performance liquid chromatography (HPLC) indicated the product to consist of 60% lysyl chlorin-p6 and 40% chlorin-p6 based on equal absorbance at 403 nm. This mixture is termed "LCP". The long wavelength molar extinction coefficient of lysyl-chlorin-p6 in methanol was 39,600 at 660 nm.

Another data set can be described thus: Water solubility. The data set is classed as physicochemical.

Where two headings read alike, the source gives them in different places.

Take `C=Cc1c(C)c2cc3nc(c(C(=O)O)c4[nH]c(cc5nc(cc1[nH]2)C(C)=C5CC)c(C)c4C(=O)O)[C@@H](CCC(=O)O)[C@@H]3C` [chlorin-p6]: in the data set on cell killing, the “activity in photodynamic therapy” value was “active in photodynamic therapy” and the photosensitized cell killing entry is reported as “potent photosensitizers which promote cell killing”.
As to `C=Cc1c(C)c2cc3nc(c(C(=O)O)c4[nH]c(cc5nc(cc1[nH]2)C(C)=C5CC)c(C)c4C(=O)NCCCC)[C@@H](CCC(=O)OC)[C@@H]3C` [(VII), chlorin-p6-6-N-butylamide-7-methyl ester], the stability entry in “Stability of compounds” is “not very stable and readily decomposed”.
For the molecule `C=Cc1c(C)c2cc3nc(c4c5[nH]c(cc6nc(cc1[nH]2)C(C)=C6CC)c(C)c5C(=O)OC4=O)[C@@H](CCC(=O)O)[C@@H]3C` [Purpurin-18], in the data set on cell killing, the “activity in photodynamic therapy” value is “active in photodynamic therapy” and the photosensitized cell killing result is “potent photosensitizers which promote cell killing”.
For `C=Cc1c(C)c2cc3nc(c(CC(=O)N[C@@H](CC(=O)[O-])C(=O)[O-])c4[nH]c(cc5nc(cc1[nH]2)C(C)=C5CC)c(C)c4C(=O)[O-])[C@@H](CCC(=O)[O-])[C@@H]3C.[Na+].[Na+].[Na+].[Na+]` [MACE, mono-L-aspartyl-chlorin e6], the tumor cures entry is given as “ineffective at inducing tumor cures” in the data set with tumor (24 hours between drug administration and light); “PDT induced tumor cures were obtained” in the data set with tumor (administered 4-6 hours prior to light exposure). Moreover, the “level of PDT induced normal skin damage vs HpD” value in the data set on normal skin was “significantly lesser”.
Take `C=Cc1c(C)c2cc3nc(c(C(=O)O)c4[nH]c(cc5nc(cc1[nH]2)C(C)=C5CC)c(C)c4C(=O)NCCCCC(N)C(=O)O)[C@@H](CCC(=O)OC)[C@@H]3C` (stereo partly shown) [(II), chlorin-p6 6-N^ε -lysylamide-7-methyl ester]: the “long wavelength molar extinction coefficient” value in data set [1] was 39,600. The solubility in water entry in “Water solubility” is given as “well soluble in water”.
